Article PMC11178805, “Ligand-based design of [^18F]OXD-2314 for PET imaging in non-Alzheimer’s disease tauopathies” (Nature Communications, 2024)
Where “and” joins values, the source holds several entries; their conditions need not be identical. Equal entries are not always repeated.

Columns and labels:
[1] = biological target: T1, 4R-tau aggregates in PSP tissue (Homo sapiens, UniProt P10636); test: Competition binding vs [^3H]OXD-2314 in PSP tissue
T1 construct: tissue Neurodegenerative Disease Brain Bank at UCSF
Description: (§1) Fresh frozen, autopsy-confirmed human PD anterior cingulate cortex brain tissue blocks (1 cm^3) were obtained from Dr. Thomas Beach at Banner/Sun Health AZ with funding from the Michael J. Fox Foundation and contained frequent α-synuclein aggregates and no other detectable aggregated amyloid species. The frozen tissue blocks were prepared for the binding assays as previously described[47],[48], except that equal quantities of the homogenates of three AD brains (AD1-AD3, Table S1) were pooled, as were homogenates from three PSP brains (PSP1-PSP3), three CBD brains (CBD1-CBD3), three Pick’s brains (PiD1-PiD3), and 4 PD brains (PD1-PD4) in order to help minimize the inter-subject variability within the different neuropathological groups. Individual subcortical brain tissues from a PSP subject (PSP4) and a CBD subject (CBD4), as well as with the middle frontal cortex of a control subject, were prepared for the binding assays as previously described[47],[48].
(§2) The equilibrium inhibition constant (Ki) values of the unlabeled compounds were determined versus tritium-labeled radioligands using published methods.

aggregated Aβ = biological target: T2, aggregated Aβ (Homo sapiens, UniProt P05067); test: Competition binding vs [^3H]PiB in AD tissue homogenates; conditions: n = 3
T2 construct: tissue Neurodegenerative Disease Brain Bank at UCSF; host or cells: human AD brain, middle frontal gyrus, pooled homogenate
Description: as §1, §2

[2] = biological target: T3, 3R-tau aggregates in PiD tissue (Homo sapiens, UniProt P10636); test: Competition binding vs [^3H]OXD-2314 in PiD tissue
T3 construct: tissue Neurodegenerative Disease Brain Bank at UCSF; host or cells: human PiD brain, middle frontal gyrus, pooled homogenate of three brains
Description: as §1, §2

[3] = Radiometabolite analysis in rat plasma and brain homogenates; format: in vivo, rat (Sprague-Dawley); conditions: for parent fraction of radioactivity in brain homogenates: rats
Description: Radiometabolite analysis was performed ex vivo in plasma and brain homogenates from rats (n = 5, 3 female and 2 male) at 30 and 60 min after radiotracer injection (Figs. S11–S16). […] The parent fraction in plasma was 6% at 30 min and 5% at 60 min in the two male rats, respectively, and 32% at 30 min (n = 1) and 18% and 17% at 60 min (n = 2) in the female rats. Different rates of metabolism between male and female rats may have contributed to the differences in kinetics observed in the brain PET scans. No lipophilic radiometabolites were detected in plasma or brain. Parent [^18F]OXD-2314 accounted for 82 ± 7% (n = 2) and 80 ± 5% (n = 3) of the radioactivity in rat brain homogenates by 30 and 60 min post-injection of the radiotracer, respectively. The rats were not perfused with saline immediately prior to sacrifice, so that radiometabolites in blood were trapped in the brain and likely accounted for a portion of the polar radiometabolites found in brain, as cerebral blood volume in rats is approximately 4–5% of total brain volume.
Five adult Sprague-Dawley rats (3 F/2 M, 378 ± 51 g) were used in [^18F]OXD-2314 radiometabolite analysis. Following injection of 46.7 ± 3.3 MBq of the radiotracer through a tail-vein catheter, rats were sacrificed by decapitation 30 min (n = 2) and 60 min (n = 3) post-injection. Trunk blood was collected and centrifuged for 5 min at 2500 × g, and the plasma was collected. Brains were quickly extracted and homogenized with a BeadBug™ (Benchmark Scientific; Sayreville, NJ, USA) in 3.2 mL acetonitrile together with 1 μg of unlabeled parent compound, then 1.6 mL deionized H2O was added and mixed. The homogenate was centrifuged at 12,000 × g for 5 min, and the supernatant was collected. Parent radiotracer was separated from metabolites in plasma and brain extract by column-switching HPLC in a mobile phase of 40/60 CH3CN/100 mM NH4HCO2 (v/v) and analyzed with PowerChrom 2.6.15 (eDAQ).

[4] = logD7.4 by shake-flask method; format: physicochemical; conditions: pH 7.4
Description: [^18F]OXD-2314 was radiolabeled by an analogous method previously reported for [^18F]OXD-2115 with minor modifications (Fig. 2)[30]. [^18F]OXD-2314 was reliably produced with high radiochemical purity (RCP) ranging from 95-98%, molar activity (Am) of […] (n = 4), and radiochemical yield (RCY) of 8.7 ± 3.7% (not decay-corrected, ndc) in the laboratories in Toronto and was replicated with Am of 349 ± 144 GBq/μmol (n = 4) and RCY of 2.3 ± 1.1% (ndc) in the laboratories in Pittsburgh. The logD7.4 value of [^18F]OXD-2314 was measured as 3.11 ± 0.04 using the shake-flask method.

T2 sequence (P05067 672-713 limits assumed): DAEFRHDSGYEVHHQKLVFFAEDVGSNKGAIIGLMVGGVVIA
T1 sequence (P10636 1-441 isoform P10636-8): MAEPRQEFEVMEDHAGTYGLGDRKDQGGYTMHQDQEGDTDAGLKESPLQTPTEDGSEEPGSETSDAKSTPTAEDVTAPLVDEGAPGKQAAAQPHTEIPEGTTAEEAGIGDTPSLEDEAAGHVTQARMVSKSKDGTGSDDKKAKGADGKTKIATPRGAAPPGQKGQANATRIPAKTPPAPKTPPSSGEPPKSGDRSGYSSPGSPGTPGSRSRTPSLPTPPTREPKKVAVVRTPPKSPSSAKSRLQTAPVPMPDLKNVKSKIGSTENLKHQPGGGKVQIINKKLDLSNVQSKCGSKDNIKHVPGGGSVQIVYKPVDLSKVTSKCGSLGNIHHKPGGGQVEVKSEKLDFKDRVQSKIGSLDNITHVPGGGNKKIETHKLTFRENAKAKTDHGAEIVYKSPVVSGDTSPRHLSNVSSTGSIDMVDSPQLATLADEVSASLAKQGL
T3 sequence (P10636 1-410 isoform P10636-5): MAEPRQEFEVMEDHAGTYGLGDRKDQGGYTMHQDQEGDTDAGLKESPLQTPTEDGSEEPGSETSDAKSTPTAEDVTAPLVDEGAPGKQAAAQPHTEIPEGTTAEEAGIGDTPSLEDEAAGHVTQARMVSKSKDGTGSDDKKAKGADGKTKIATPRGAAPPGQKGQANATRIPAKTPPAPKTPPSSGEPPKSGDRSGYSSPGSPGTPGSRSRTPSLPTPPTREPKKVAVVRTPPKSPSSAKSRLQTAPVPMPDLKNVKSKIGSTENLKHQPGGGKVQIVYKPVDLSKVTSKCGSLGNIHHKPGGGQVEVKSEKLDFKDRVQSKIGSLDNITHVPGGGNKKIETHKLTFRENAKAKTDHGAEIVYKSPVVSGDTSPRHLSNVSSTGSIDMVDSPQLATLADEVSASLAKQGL

| Ki [1] [nM] | Ki (aggregated Aβ) [nM] | Ki [2] [nM] | SMILES | % Parent Brain ([3]; female rat, 30 min) [%] | parent fraction in plasma ([3]; female rat, 30 min post-injection) | % Parent Brain ([3]; female rats, 60 min) | parent fraction in plasma ([3]; female rats, 60 min post-injection) | % Parent Brain ([3]; male rat, 30 min) [%] | parent fraction in plasma ([3]; male rat, 30 min post-injection) | % Parent Brain ([3]; male rat, 60 min) [%] | parent fraction in plasma ([3]; male rat, 60 min post-injection) [%] | parent fraction of radioactivity in brain homogenates ([3]; 30 min post-injection, n = 2) [%] | parent fraction of radioactivity in brain homogenates ([3]; 60 min post-injection, n = 3) [%] | logD [4] |
| --- | --- | --- | --- | --- | --- | --- | --- | --- | --- | --- | --- | --- | --- | --- |
| 5.8 ± 0.2 | 161 ± 34 | 5.5 ± 0.5 | COC1CCCN(c2ccc(-c3cc4cc(O)ccc4[nH]3)c(F)n2)C1 (centres unmarked) [OXD-2314, 2-(2-fluoro-6-(3-methoxypiperidin-1-yl)pyridin-3-yl)-1H-indol-5-ol] |  |  |  |  |  |  |  |  |  |  |  |
|  |  |  | CO[C@H]1CCCN(c2ccc(-c3cc4cc(O)ccc4[nH]3)c([18F])n2)C1 [[^18F]OXD-2314] | 77.11 | 32% and 32.43% | 81.01% and 83.78% | 18% and 17% and 17.66% and 17.32% | 87.09 | 6% and 5.79% | 74.16 | 5 | 82 ± 7 | 80 ± 5 | 3.11 ± 0.04 |
